Literature values, collected in patent US7550162B2, “Labiatae herb extracts and hop extracts for extending the color life and inhibiting the growth of microorganisms in fresh meat, fish and poultry” (Kalsec Incorporated, priority 2001, dated 2009).
Values after ≈ are worked out from the molar mass of the structure shown. Like-named read-outs stand apart in the source and are kept apart here.

Columns and labels:
[1] = test system: Gram-positive organisms; settings: value also given in ppm
[2] = test system: Gram positive organisms; settings: in culture
[3] = test system: Listeria; settings: soy broth
[4] = test system: beer spoilage organisms

| Structure (SMILES) | Minimum inhibitory concentration [1] [µg/mL] | concentration inhibiting Listeria [3] | other results |
| --- | --- | --- | --- |
| CC(C)=CCC1=C(O)C(C(=O)CC(C)C)=C(O)C(CC=C(C)C)(CC=C(C)C)C1=O [Lupulone (beta acids), Lupulone] | 1 (≈ 2.41 µM) | – | MIC [2]: 1-10 ppm |
| CC(C)CCC1=C(O)C(C(=O)C(C)C)=C(O)C(CCC(C)C)(CCC(C)C)C1=O [hexahydrocolulupone, hexahydrocolupulone] | – | 0.4 ppm | – |
| CC(C)CCC(=O)C1(O)C(O)=C(C(=O)CC(C)C)C(=O)C1CCC(C)C (centres unmarked) [Tetrahydroisohumulone, tetrahydroisohumulone] | – | 6-18 ppm | – |
| CC(C)=CCC1=C(O)C(C(=O)CC(C)C)=C(O)C1O (centres unmarked) [humulinic acid] | 250 (≈ 939 µM) | – | – |
| CC(C)=CCC(=O)C1(O)C(O)=C(C(=O)CC(C)C)C(=O)C1CC=C(C)C (centres unmarked) [isohumulone] | 25 (≈ 69 µM) | – | relative activity ([4]; pH 3.8): 226; relative activity ([4]; pH 4.6): 42 |
